{
  "source": "patent US11179393B2",
  "about": "“Methods of treating or preventing preterm labor” (priority 2014, dated 2021)",
  "tested_on": "muscarinic receptor",
  "test": "Test on salivary secretion in rat (oxotremorine-induced), compared with rhythmic bladder contraction test",
  "format": "in vivo",
  "settings": "anesthetized Wistar rat; ID50 = 50% inhibition of saliva, ED30 = 30% inhibition of bladder contraction",
  "method": "a. Test on Rhythmic Bladder Contraction in Rat\nA female Wistar rat (130-200 g) is subjected to urethane anesthesia (1.0 g/kg s.c.), followed by ligation of the ureter on the kidney side. A urethral catheter is allowed to remain in the bladder, and about 1.0 mL of physiological saline is injected into the bladder through the catheter to cause rhythmic bladder contraction. Intravesical pressure is measured by a pressure transducer. After rhythmic contraction continues stable for at least 5 minutes, the test compound is cumulatively administered from the external jugular vein. Five to ten minutes later, the intravesical pressure is measured. An inhibition ratio of bladder contraction is determined compared with the bladder contraction before administration of the test compound and the dose of the test compound required for 30% inhibition of the bladder contraction before administration is designated as ED30.\nb. Test on Salivary Secretion in Rat\nA male Wistar rat (160-190 g) is subjected to anesthesia with urethane (0.8 g/kg i.p.), and the test compound is administered (to the control group: solvent). Fifteen minutes later, 0.8 μmol/kg of oxotremorine is administered. In each case, the drug is administered through the femoral artery. The saliva secreted for 5 minutes after the administration of oxotremorine is collected and weighed. […]",
  "data": [
    {"compound": "CN1[C@@H]2CC[C@H]1C[C@@H](OC(=O)C(CO)c1ccccc1)C2", "note": "(stereo partly shown) [atropine]", "values": [
      {"measurement": "ID50 value (salivary secretion) relative to ED30 value (rhythmic bladder contraction)", "result": "substantially the same"}
    ]}
  ]
}
